The results in this text go back to patent US20180214428A1, “3-(1H-INDOL-2-YL)-1H-PYRAZOLO[3,4-B]PYRIDINES AND THERAPEUTIC USES THEREOF” (Samumed, LLC, priority 2015, published 2018).

SMILES strings stand for the structures.

The test system of experiment [1] is primary human mesenchymal stem cells (hMSCs). In words: Induction of chondrogenesis in primary human mesenchymal stem cells. The following applies: 6 days; for Emax / EC50: Homo sapiens, Mesenchymal stem cells, 144 h; for Emax: read-out: Max. Activity as % TGF-β3 activity; for EC50: concentration required to induce 50% levels of chondrogenesis vs TGF-β3, read-out: Conc (nM) of 50% TGF-β3 activity. Format: cell-based. As for the experimental part: Representative compounds were screened using primary human mesenchymal stem cells (hMSCs) to determine their ability to induce chondrogenesis (process by which cartilage is developed).
Primary human mesenchymal stem cells (hMSCs) were purchased from Lonza (Walkersville, Md.) and expanded in Mesenchymal Stem Cell Growth Media (Lonza). Cells between passage 3 and 6 were used for the experiments.
Each compound was dissolved in DMSO as a 10 mM stock and used to prepare compound source plates. Serial dilution (1:3, 6-point dose-response curves from 2700 nM to 10 nM) and compound transfer was performed using the ECHO 550 (Labcyte, Sunnyvale, Calif.) into 96-well clear bottom assay plates (Greiner Bio-One) with appropriate DMSO backfill for a final DMSO concentration of 0.03%. hMSCs were plated at 20,000 cells/well in 250 μL/well Incomplete Chondrogenic Induction Medium (Lonza; DMEM, dexamethasone, ascorbate, insulin-transferrin-selenium [ITS supplement], gentamycin-amphotericin [GA-1000], sodium pyruvate, proline and L-glutamine). TGF-β3 (10 ng/mL) was used as a positive control for differentiation while negative control wells were treated with 75 nL DMSO for normalization and calculating EC50 values. Cells were incubated at 37° C. and 5% CO2 for 6 days. To image chondrogenic nodules, the cells were fixed using 4% formaldehyde (Electron Microscopy Sciences), and stained with 2 μg/mL Rhodamine B (Sigma-Aldrich) and 20 μM Nile Red (Sigma-Aldrich) [Johnson K., et. al, A Stem Cell-Based Approach to Cartilage Repair, Science, (2012). 336(6082), 717-721]. The nodules imaged (4 images per well at 4× magnification) by excitation at 531 nm and emission at 625 nm and quantified using the CellInsight CX5 (Thermo Scientific). Number of nodules in each well was normalized to the average of 3 DMSO treated wells on the same plate using Excel (Microsoft Inc.). The normalized averages (fold change over DMSO) of 3 replicate wells for each compound concentration were calculated. Due to solubility limitations of some of the compounds, curve fitting was incomplete leading to inaccurate EC50 determinations.
Using TGF-β3 as a positive control, the concentration of representative compounds required to induce 50% levels of chondrogenesis is reported. In addition, the maximum activity of each compound and the respective dose that each compound reached maximum chondrogenesis activity is reported.

Experiment [2] concerns IL-6. In words: IL-6 inhibition in LPS-stimulated THP-1 monocytes (HTRF). Type of experiment: cell-based, human. The settings on record: THP-1 cells; for EC50: 500 ng/mL LPS, 22 h, HTRF IL-6 readout, 10-point dose-response from 10 μM; for inhibition at 10 µM: LPS stimulated, given only where EC50 >10 μM, top concentration 10 μM, read-out: percentage in parentheses beside EC50 >10 (IL-6 inhibition). The method, boiled down:
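THP-1 cells serum-reduced (1% FBS, 24 h), then 5000 cells/well preincubated 2 h with compound (10-point 1:3 series from 10 μM, 0.1% DMSO) before 500 ng/mL LPS for 22 h at 37 °C. Secreted IL-6 quantified by HTRF 665/620 ratio; DMSO-normalised duplicates fitted to four-parameter EC50; above 10 μM, % inhibition at 10 μM given.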
For orientation: Time-resolved FRET reads energy transfer from a long-lived donor to a nearby acceptor.

Setting [3] is: chondrogenic nodules, TGF-β3 (10 ng/mL) positive control.

Turning to `c1ccc(-c2cccc3[nH]c(-c4n[nH]c5ncc(-c6cncnc6)cc45)cc23)nc1` [Compound 143, 3-(4-(Pyridin-2-yl)-1H-indol-2-yl)-5-(pyrimidin-5-yl)-1H-pyrazolo[3,4-b]pyridine], the Emax in experiment [1] (setting [3]) stood at 25%. In experiment [2] (Homo sapiens), the EC50 was greater than 10000 nM and the inhibition at 10 µM was found to be 37.6%.

Regarding `CCNCc1cncc(-c2cnc3[nH]nc(-c4cc5c(N6CCCCC6)cccc5[nH]4)c3c2)c1` [Compound 150, N-((5-(3-(4-(Piperidin-1-yl)-1H-indol-2-yl)-1H-pyrazolo[3,4-b]pyridin-5-yl)pyridin-3-yl)methyl)ethanamine], the Emax in experiment [1] (setting [3]) was 91%. The EC50 in experiment [1] turned out to be 30 nM; in experiment [2] (Homo sapiens) it was 1460 nM.

With `CN(C)c1cncc(-c2cnc3[nH]nc(-c4cc5c(N6CCCCC6)cccc5[nH]4)c3c2)c1` [Compound 151, N,N-Dimethyl-5-(3-(4-(piperidin-1-yl)-1H-indol-2-yl)-1H-pyrazolo[3,4-b]pyridin-5-yl)pyridin-3-amine], in experiment [1] (setting [3]), the Emax is 22%. The molecule also registered an EC50 in experiment [2] (Homo sapiens) of 5250 nM.

`CN1CCN(c2cccc3[nH]c(-c4n[nH]c5ncc(-c6cncc(CN7CCCCC7)c6)cc45)cc23)CC1` [Compound 215, 3-(4-(4-Methylpiperazin-1-yl)-1H-indol-2-yl)-5-(5-(piperidin-1-ylmethyl)pyridin-3-yl)-1H-pyrazolo[3,4-b]pyridine]: the Emax in experiment [1] (setting [3]) came to 51%. For the same molecule, the EC50 in experiment [1] worked out at 300 nM; in experiment [2] (Homo sapiens), 220 nM.

For the molecule `CN1CCN(c2cccc3[nH]c(-c4n[nH]c5ncc(-c6cncc(NC(=O)C7CCCC7)c6)cc45)cc23)CC1` [Compound 222, N-(5-(3-(4-(4-Methylpiperazin-1-yl)-1H-indol-2-yl)-1H-pyrazolo[3,4-b]pyridin-5-yl)pyridin-3-yl)cyclopentanecarboxamide], the Emax in experiment [1] (setting [3]) was determined as 408%. For the same molecule, the EC50 in experiment [1] turned out to be 100 nM; in experiment [2] (Homo sapiens), 98 nM.

For `c1ccc2[nH]c(-c3n[nH]c4ncc(-c5cncc(CN6CCCC6)c5)cc34)cc2c1` [Compound 240, 3-(1H-Indol-2-yl)-5-(5-(pyrrolidin-1-ylmethyl)pyridin-3-yl)-1H-pyrazolo[3,4-b]pyridine], in experiment [1] (setting [3]), the Emax is 98%. For the same molecule, the EC50 in experiment [1] came to 10 nM; in experiment [2] (Homo sapiens) it was 821 nM.

With `CCCC(=O)Nc1cncc(-c2cnc3[nH]nc(-c4cc5ccccc5[nH]4)c3c2)c1` [Compound 243, N-(5-(3-(1H-Indol-2-yl)-1H-pyrazolo[3,4-b]pyridin-5-yl)pyridin-3-yl) butyramide], in experiment [1] (setting [3]), the Emax is 28%. The same molecule returned an EC50 in experiment [2] (Homo sapiens) of 2080 nM.

As for `FC1(F)CCN(Cc2cncc(-c3cnc4[nH]nc(-c5cc6c(-c7ccoc7)cccc6[nH]5)c4c3)c2)C1` [Compound 308, 5-(5-((3,3-Difluoropyrrolidin-1-yl)methyl)pyridin-3-yl)-3-(4-(furan-3-yl)-1H-indol-2-yl)-1H-pyrazolo[3,4-b]pyridine], in experiment [1] (setting [3]), the Emax worked out at 72%. The EC50 in experiment [1] was 30 nM; in experiment [2] (Homo sapiens) it was 7150 nM.

Turning to `CC(C)CC(=O)Nc1cncc(-c2cnc3[nH]nc(-c4cc5c(-c6cc(F)cc(NCCN(C)C)c6)cccc5[nH]4)c3c2)c1` [Compound 424, N-(5-(3-(4-(3-((2-(Dimethylamino)ethyl)amino)-5-fluorophenyl)-1H-indol-2-yl)-1H-pyrazolo[3,4-b]pyridin-5-yl)pyridin-3-yl)-3-methylbutanamide], the Emax in experiment [1] (setting [3]) was 63%. Also, the EC50 in experiment [2] (Homo sapiens) stood at 660 nM.

As to `CN(C)CCNc1cc(F)cc(-c2cccc3[nH]c(-c4n[nH]c5ncc(-c6cncc(N)c6)cc45)cc23)c1` [Compound 425, N^1-(3-(2-(5-(5-Aminopyridin-3-yl)-1H-pyrazolo[3,4-b]pyridin-3-yl)-1H-indol-4-yl)-5-fluorophenyl)-N^2,N^2-dimethylethane-1,2-diamine], in experiment [1] (setting [3]), the Emax turned out to be 101%. The EC50 amounted to 900 nM in experiment [1] and 92 nM in experiment [2] (Homo sapiens).

As for `CCNCc1cncc(-c2cnc3[nH]nc(-c4cc5c(-c6cc(F)cc(NCCN(C)C)c6)cccc5[nH]4)c3c2)c1` [Compound 428, N^1-(3-(2-(5-(5-((Ethylamino)methyl)pyridin-3-yl)-1H-pyrazolo[3,4-b]pyridin-3-yl)-1H-indol-4-yl)-5-fluorophenyl)-N^2,N^2-dimethylethane-1,2-diamine], in experiment [1] (setting [3]), the Emax amounted to 74%. The molecule also had an EC50 in experiment [2] (Homo sapiens) of 257 nM.

Take `CC(C)Nc1cncc(-c2cnc3[nH]nc(-c4cc5c(-c6cc(F)cc(NCCN(C)C)c6)cccc5[nH]4)c3c2)c1` [Compound 434, N^1-(3-Fluoro-5-(2-(5-(5-(isopropylamino)pyridin-3-yl)-1H-pyrazolo[3,4-b]pyridin-3-yl)-1H-indol-4-yl)phenyl)-N^2,N^2-dimethylethane-1,2-diamine]: the Emax in experiment [1] (setting [3]) stood at 56%. Moreover, the EC50 in experiment [2] (Homo sapiens) is 692 nM.

Turning to `CN(C)CCNc1cc(F)cc(-c2cccc3[nH]c(-c4n[nH]c5ncc(-c6cncc(CN7CCCCC7)c6)cc45)cc23)c1` [Compound 437, N^1-(3-Fluoro-5-(2-(5-(5-(piperidin-1-ylmethyl)pyridin-3-yl)-1H-pyrazolo[3,4-b]pyridin-3-yl)-1H-indol-4-yl)phenyl)-N^2,N^2-dimethylethane-1,2-diamine], in experiment [1] (setting [3]), the Emax was determined as 175%. Besides, the EC50 in experiment [1] is 900 nM; in experiment [2] (Homo sapiens), greater than 10000 nM. In addition, the inhibition at 10 µM in experiment [2] (Homo sapiens) turned out to be 43.2%.

For `CN(C)CCNc1cc(F)cc(-c2cccc3[nH]c(-c4n[nH]c5ncc(-c6ccncc6)cc45)cc23)c1` [Compound 440], in experiment [1] (setting [3]), the “Max. Activity as % TGF-β3 activity” value was 31%. The “Conc (nM) of Max. activity” value in experiment [1] (chondrogenic nodules, dose at which maximum chondrogenesis activity was reached) is 2700 nM. The same molecule came in with an EC50 in experiment [2] of 15 nM.

Take `CN(C)CCNc1cc(F)cc(-c2cccc3[nH]c(-c4n[nH]c5ncc(-c6cncc(NC(=O)C7CCC7)c6)cc45)cc23)c1` [Compound 443, N-(5-(3-(4-(3-((2-(Dimethylamino)ethyl)amino)-5-fluorophenyl)-1H-indol-2-yl)-1H-pyrazolo[3,4-b]pyridin-5-yl)pyridin-3-yl)cyclobutanecarboxamide]: in experiment [1] (setting [3]), the Emax turned out to be 78%. In addition, the EC50 in experiment [1] was 100 nM; in experiment [2] (Homo sapiens), greater than 10000 nM. Also, the inhibition at 10 µM in experiment [2] (Homo sapiens) was 47.3%.

For the molecule `CN(C)CCNc1cc(F)cc(-c2cccc3[nH]c(-c4n[nH]c5ncc(-c6cncnc6)cc45)cc23)c1` [Compound 449, N^1-(3-Fluoro-5-(2-(5-(pyrimidin-5-yl)-1H-pyrazolo[3,4-b]pyridin-3-yl)-1H-indol-4-yl)phenyl)-N^2,N^2-dimethylethane-1,2-diamine], the Emax in experiment [1] (setting [3]) turned out to be 17%. The EC50 in experiment [2] (Homo sapiens) worked out at 7 nM.

`CS(=O)(=O)NCc1cc(F)cc(-c2cccc3[nH]c(-c4n[nH]c5ncc(-c6cncc(N)c6)cc45)cc23)c1` [Compound 453, N-(3-(2-(5-(5-Aminopyridin-3-yl)-1H-pyrazolo[3,4-b]pyridin-3-yl)-1H-indol-4-yl)-5-fluorobenzyl)methanesulfonamide]: the Emax in experiment [1] (setting [3]) worked out at 189%. The EC50 amounted to 900 nM in experiment [1] and 157 nM in experiment [2] (Homo sapiens).

Take `CN(C)Cc1cncc(-c2cnc3[nH]nc(-c4cc5c(-c6cc(F)cc(CNS(C)(=O)=O)c6)cccc5[nH]4)c3c2)c1` [Compound 463, N-(3-(2-(5-(5-((Dimethylamino)methyl)pyridin-3-yl)-1H-pyrazolo[3,4-b]pyridin-3-yl)-1H-indol-4-yl)-5-fluorobenzyl)methane sulfonamide]: in experiment [1] (setting [3]), the Emax was 65%. In addition, the EC50 is 100 nM in experiment [1] and 451 nM in experiment [2] (Homo sapiens).

Consider `CN(C)CCOc1cncc(-c2cnc3[nH]nc(-c4cc5c(-c6cccnc6)cccc5[nH]4)c3c2)c1` [Compound 565, N,N-Dimethyl-2-((5-(3-(4-(pyridin-3-yl)-1H-indol-2-yl)-1H-pyrazolo[3,4-b]pyridin-5-yl)pyridin-3-yl)oxy)ethan-1-amine], for which the Emax in experiment [1] (setting [3]) was determined as 46%. In addition, in experiment [2] (Homo sapiens), the EC50 was determined as 1980 nM.

Usually inhibition stands for the share of the control response that was lost under treatment.
